Assay results taken from patent US6124460A, “Isoquinuclidine derivatives, method of manufacturing the same and therapeutic agents for hypercholesterolemia containing these compounds” (Kotobuki Pharmaceutical Co. Ltd., priority 1998, dated 2000).
Structures can show the parent of a compound that is named as a salt.

Experiments:
[1] = biological target: T1, Squalene Synthase in Rat Liver Microsomes (Rattus norvegicus, UniProt Q02769); assay: Assay of squalene synthase (SQS) in rat liver microsomes; format: biochemical, male Sprague-Dawley rat; details: for IC50: 2.5 μM FPP, pH 7.4, 30 min at 37° C., read-out: Inhibition of SQS IC50; for Inhibition of SQS (N.E.; no effect at a dose in the parentheses): at 10^-5 M
T1 construct: microsomes were prepared from male Sprague-Dawley rat; from tissue; host or cells: rat liver microsomes (male Sprague-Dawley)
T1 sequence (Q02769 1-416): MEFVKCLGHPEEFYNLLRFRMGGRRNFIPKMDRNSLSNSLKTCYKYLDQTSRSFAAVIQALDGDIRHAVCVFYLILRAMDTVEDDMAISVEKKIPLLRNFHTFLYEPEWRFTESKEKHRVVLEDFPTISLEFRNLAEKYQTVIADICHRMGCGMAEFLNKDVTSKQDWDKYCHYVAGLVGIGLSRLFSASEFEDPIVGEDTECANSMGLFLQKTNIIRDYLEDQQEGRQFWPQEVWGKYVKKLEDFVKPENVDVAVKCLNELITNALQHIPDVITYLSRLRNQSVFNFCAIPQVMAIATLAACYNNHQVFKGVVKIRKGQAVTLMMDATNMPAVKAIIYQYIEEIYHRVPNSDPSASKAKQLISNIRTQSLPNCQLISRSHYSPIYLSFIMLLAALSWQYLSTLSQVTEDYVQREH
Protocol: 1. Assay of Squalene Synthase in Rat Liver Microsomes Squalene synthase assay was performed in accordance with the method described by [NT] (Biochem. Pharmacol., 51, 1477 (1996)). That is to say, microsomes were prepared from male Sprague-Dawley rat (weight range 250-300 g) by homogenising in 50 mM phosphate buffer, pH 7.4, 5.0 mM MgCl2, 1.0 mM EDTA, and 1.0 mM dithiothreitol using a polytron (Kinetica, Sweden). The homogenates were centrifuged at 10,000 g for 20 min at 4° C., and, after spinning the supernatants were poured into the tube through cotton gauze. Microsomes were then isolated from the supernatant by centrifugation at 178,000 g for 90 min at 4° C. Microsomes were then resuspended in homogenisation buffer and stored in aliquots at -80° C. until use. For in vitro studies, the compounds were dissolved in DMSO. The squalene synthase reaction system in a volume of 100 μl contained 50 mM phosphate buffer, pH 7.4, 5.0 mM MgCl2, 10 mM KF, 0.5 mM NADPH, 50 mM ascorbic acid, 20U /ml ascorbate oxidase, 2.5 μM farnesyl-pyrophosphate (FPP) and microsomes, 40 μg/ml. The compounds (in 1 μl DMSO), microsomes (in 10 μl buffer) and other reagent ([…]) were pre-incubated for 5 min at 37° C. The reactions were started by the addition of 5 μl of an aqueous solution of FPP containing about 0.1 μCi of [H] FPP; incubations were at 37° C. for 30 min. The reactions were then stopped by the addition of 50 μl of 20% KOH in 50% ethanol. […] The IC50 values were calculated.

Sterol Biosynthesis = assay: Assay of sterol biosynthesis in rats (inhibition of cholesterol biosynthesis); format: in vivo; details: female Sprague-Dawley rats, liver; for Inhibition of cholesterol biosynthesis (N.E.; no effect at a dose in the parentheses) / inhibition at 30 mg/kg: 30 mg/kg p.o.; for inhibition at 30 mg/kg: po, vs vehicle-treated controls

Structure (SMILES)	IC50 [1] [nM]	further results
CCOC(=O)c1ccc(C#Cc2ccc(OCCCN3C(=O)C4CCC3CC4)cc2)cc1 [Compound 15, Ethyl 4-[4-[3-(3-oxo-2-azabicyclo[2.2.2]octan-2-yl)propoxy]phenylethynyl]-benzoate]	410	–
C#Cc1ccc(OCCCN2CC3CCC2CC3)c(CC=C)c1 [Compound 38, 2-[3-[(2-Allyl-4-ethynyl)phenoxy]propane-1-yl]-2-azabicyclo[2.2.2]octane hydrochloride]	11	inhibition at 30 mg/kg (Sterol Biosynthesis; Rattus norvegicus): 50.4%
C#Cc1ccc(OCCCN2C(=O)C3CCC2CC3)c(CC=C)c1 [Compound 37, 2-[3-[(2-allyl-4-ethynyl)phenoxy]propane-1-yl]-2-azabicyclo[2.2.2]oct-3-one]	–	Inhibition of SQS (N.E.; no effect at a dose in the parentheses) [1]: N.E.
C#Cc1ccc(OCCN2C(=O)C3CCC2CC3)cc1 [Compound 13, 2-[2-(4-ethynylphenoxy)ethyl]-2-azabicyclo[2.2.2]octane-3-one]	–	Inhibition of SQS (N.E.; no effect at a dose in the parentheses) [1]: N.E.; inhibition at 30 mg/kg (Sterol Biosynthesis; Rattus norvegicus): 30.3%
CCOC(=O)C#Cc1ccc(OCCCN2C(=O)C3CCC2CC3)cc1 [Compound 6, Ethyl 4-[3-(3-oxo-2-azabicyclo[2.2.2]octan-2-yl)propoxy]phenylpropiolate]	3100	–
C#Cc1ccc(OCCCCN2C(=O)C3CCC2CC3)cc1 [Compound 14, 2-[4-(4-ethynylphenoxy)butane-1-yl]-2-azabicyclo[2.2.2]-octane-3-one]	490	–
O=C(O)C#Cc1ccc(OCCCN2C(=O)C3CCC2CC3)cc1 [Compound 7, 4-[3-(3-oxo-2-azabicyclo[2.2.2]octan-2-yl)propoxy]phenylpropiolic acid]	490	–
C#Cc1ccc(OCCCN2C(=O)C3CCC2CC3)cc1 [Compound 5, 2-[3-(4-ethynylphenoxy)propane-1-yl]-2-azabicyclo[2.2.2]octane-3-one]	11	ED50 (Sterol Biosynthesis; Rattus norvegicus, oral gavage, [H] mevalonolactone i.p. after 1 hr): 13.4 mg/kg
O=C1C2CCC(CC2)N1CCCOc1ccc(C#Cc2ccc(N3C(=O)C4CCC3CC4)cc2)cc1 [Compound 24, 2-[3-[4-[4-(3-oxo-2-azabicyclo[2.2.2]octan-2-yl)phenylethynyl]phenoxy]propan-1-yl]-2-azabicyclo[2.2.2]octan-3-one]	56000	–

Now from value to compound, other results behind:

IC50 [1] [nM]	Structure (SMILES)	further results
23	O=C(O)c1ccc(C#Cc2ccc(OCCCN3C(=O)C4CCC3CC4)cc2)cc1 [Compound 16, 4-[4-[3-(3-oxo-2-azabicyclo[2.2.2]octan-2-yl)propoxy]phenylethynyl]-benzoic acid]	Inhibition of cholesterol biosynthesis (N.E.; no effect at a dose in the parentheses) (Sterol Biosynthesis): N.E.
64	CCOC(=O)C#Cc1ccc(OCCCN2CC3CCC2CC3)cc1 [Compound 12, Ethyl 4-[3-(2-azabicyclo[2.2.2]octan-2-yl)propoxy]phenylpropiolate hydrochloride]	–
56	O=C(O)c1ccc(C#Cc2ccc(OCCCN3C(=O)C4CCC3CC4)cc2)s1 [Compound 21, 5-[4-[3-(3-oxo-2-azabicyclo[2.2.2]octan-2-yl)propoxy]phenylethynyl]-thiophene-2-carboxylic acid]	–
690	CCOC(=O)c1ccc(C#Cc2ccc(OCCCN3CC4CCC3CC4)cc2)cc1 [Compound 20, Ethyl 4-[4-[3-(2-azabicyclo[2.2.2]octan-2-yl)propoxy]phenylethynyl]-benzoate hydrochloride]	–
39	Cl.O=C(O)c1ccc(C#Cc2ccc(OCCCN3CC4CCC3CC4)cc2)cc1 [Compound 19, 4-[4-[3-(2-azabicyclo[2.2.2]octan-2-yl)propoxy]phenylethynyl]-benzoic acid hydrochloride]	Inhibition of cholesterol biosynthesis (N.E.; no effect at a dose in the parentheses) (Sterol Biosynthesis): N.E.
69	O=C1C2CCC(CC2)N1CCCOc1ccc(C#Cc2ccc(-c3cccc4ncccc34)cc2)cc1 [Compound 23, 2-[3-[4-[4-(quinolin-5-yl)phenylethynyl]phenoxy]propan-1-yl]-2-azabicyclo[2.2.2]octan-3-one hydrochloride]	inhibition at 30 mg/kg (Sterol Biosynthesis; Rattus norvegicus): 46.7%
31	C(#Cc1cccc2ncccc12)c1ccc(OCCCN2CC3CCC2CC3)cc1 [Compound 25, 2-[3-[4-(quinolin-5-yl-ethynyl)phenoxy]propan-1-yl]-2-azabicyclo[2.2.2]-octane dihydrochloride]	–
15	O=C1C2CCC(CC2)N1CCCOc1ccc(C#Cc2cccc3ncccc23)cc1 [Compound 22, 2-[3-[4-(quinolin-5-yl-ethynyl)phenoxy]propan-1-yl]-2-azabicyclo[2.2.2]-octan-3-one hydrochloride]	inhibition at 30 mg/kg (Sterol Biosynthesis; Rattus norvegicus): 25.1%
19	C#Cc1ccc(OCCCN2CC3CCC2CC3)cc1 [Compound 10, 2-[3-(4-ethynylphenoxy)propane-1-yl]-2-azabicyclo[2.2.2]octane hydrochloride]	inhibition at 30 mg/kg (Sterol Biosynthesis; Rattus norvegicus): 48.6%
